Columns and labels:
[1] = tested on: pulmonary Clara cells; experiment: Naphthalene lung injury model, ablation of Clara cells; type: in vivo, mouse; conditions: naphthalene alone, C57BL mice
Method: For lung injury studies, mice were given an intraperitoneal injection of naphthalene (NA) (more than 99% pure; Sigma-Aldrich), dissolved in corn oil, 200 mg per kg body weight, 40-48 hours before transplantation of embryonic lung tissue. To that end, these cells were initially evaluated in a model based on injury induction with naphthalene, as previously described [[…] et al, American Journal of Physiology-Lung Cellular and Molecular Physiology. (1995) 269(6):791]. This lung injury model mimics lung diseases caused by mild epithelial injury, detectable by changes in the expression of pulmonary Clara cells. The particular anatomical localization of Clara cells in respiratory bronchioles and in broncho-alveolar junctions enabled to accurately localize the site of injury after naphthalene exposure, and to test the ability of a single cell suspension of embryonic “window” cells to colonize and restore the injured epithelial layer in syngeneic recipients.

[2] = tested on: C57BL/6 mice, recipient lungs; experiment: Assessment of GFP+ foci in chimeric lungs by morphometry after different conditioning regimens; type: in vivo, mouse; conditions: for engraftment / lung chimerism of donor-derived cells: conditioning with NA alone, 1×10^6 E16 lung cells 2 days after NA; for donor-derived foci: E16 lung cells
Method: For lung injury studies, mice were given an intraperitoneal injection of naphthalene (NA) (more than 99% pure; Sigma-Aldrich), dissolved in corn oil, 200 mg per kg body weight, 40-48 hours before transplantation of embryonic lung tissue. For ‘double’ lung injury, naphthalene-treated animals were further irradiated in a cesium irradiator (Gammacell 40), (40-48 hours after naphthalene administration). C57BL/6, tdTomato (Gt(ROSA)26Sortm4(ACTB-tdTomato,-EGFP)Luo/J mice, and Rag1^−/− mice were irradiated with 6 Gy TBI, and NOD-SCID mice were irradiated 3-4 Gy TBI. Following conditioning with NA, TBI, or both, C57BL/6 mice were transplanted with 1×10^6 GFP-positive E15-E16 embryonic lung cells injected into the tail vein 4-8 hours following irradiation. Lungs were fixed with a 4% PFA solution introduced through the trachea under a constant pressure of 20 cm H2O. Then the lungs were immersed in fixative overnight at 4° C. Lungs were processed after PFA treatment and fixed in 30% sucrose and frozen in Optimal Cutting Temperature (OCT) compound (Sakura Finetek USA, Inc. Tissue-Tek). Serial step sections, 12 μm in thickness, were taken along the longitudinal axis of the lobe. The fixed distance between the sections was calculated so as to allow systematic sampling of at least 20 sections across the whole lung. Lung slices were analyzed by fluorescence microscopy. The actual number of GFP^+ foci (a group of more than 5 distinct GFP^+ cells was defined as a single patch) was counted per slice using Image Pro software. The area of each slice was estimated by Image Pro software, and the average area of slices and average frequency of GFP^+ patches in all the slices were assessed (patch(P)/Area(A) (mm2)), assuming that the frequency per area in a large number of slices reflects distribution per volume.

[3] = tested on: endogenous lung progenitors; experiment: BrdU incorporation assay (lung cell proliferation in vivo); set-up: species or system mouse
Method: Lung cell proliferation was measured in vivo by BrdU uptake. Briefly, control and four groups of experimental mice (7 days following naphthalene administration and 5 days after TBI) received a single dose of BrdU (Sigma) intraperitoneally 120 minutes before sacrifice (at a dose of 50 mg per kg of body weight). Lungs were excised, left lungs were enzymatically digested (using the same protocol as for embryonic tissue dissociation) for polychromatic FACS analysis, and right lungs were fixed with 4% PFA and processed for further immunofluorescence staining. Multiple serial slices were costained with anti-BrdU-FITC and anti-CCSP or anti-SPC antibodies. All FACS and immunohistochemical studies were done using the BrdU flow kit (BD Biosciences), according to the manufacturer's instructions. For morphometric analysis of CCSP^+BrdU^+ and SPC^+BrdU^+ cells, images were stained with anti-CCSP and anti-BrdU or anti-SPC and anti-BrdU antibodies and nuclei counterstained with Hoechst dye. The images were acquired by an observer blinded to the treatment groups, using an Olympus fluorescent microscope and Olympus digital camera (DP70) with a ×40 objective. At least 20 different stained random fields were counted for each marker.

c1ccc2ccccc2c1 [naphthalene]
ablation of Clara cells [1]: transient
GFP positive patches (engraftment of donor-derived cells) ([2]; NA and 6 Gy TBI vs TBI alone or NA alone, 30 days post transplant): markedly enhanced
engraftment / lung chimerism of donor-derived cells [2]: could not enable significant engraftment
engraftment / lung chimerism of donor-derived cells ([2]; listed as NA): failed to attain a detectable level of lung chimerism
donor-derived foci ([2]; conditioning with naphthalene alone, 30 days post transplant): 10-12 foci/mm^3
donor-derived foci ([2]; conditioning with naphthalene and 6 Gy TBI, 30 days post transplant): 55 foci/mm^3
endogenous cell recovery ([3]; 6 Gy TBI 48 hrs after NA treatment): inhibited
level of BrdU+ cells within endothelial, epithelial and mesenchymal lineages (FACS) ([3]; 6 Gy TBI administered 48 hrs after NA): significantly reduced
ablation of endogenous pool of progenitors ([3]; 6 Gy TBI prior to NA treatment): did not effectively ablate the endogenous pool of progenitors
endogenous BrdU+ proliferating cells ([3]; NA alone, no transplantation): marked signal of endogenous BrdU^+ proliferating cells

— patent US10668109B2, “Conditioning protocols and use of same for tissue regeneration” (Yeda Research and Development Co. Ltd., priority 2015, dated 2020)
